Data from the supplement of paper PMC10307832.

Columns and labels:
Assay in all cases: relative viability (nuclei count vs DMSO), 5 days (fraction); higher = more cells survive
ALW-II-49-7 + Decitabine = compound: Cc1ccc(C(=O)Nc2cccc(C(F)(F)F)c2)cc1Nc1cncc(C(N)=O)c1 [ALW-II-49-7] + Nc1ncn([C@H]2C[C@H](O)[C@@H](CO)O2)c(=O)n1 [Decitabine] (partner 2 µM)
Procedure, shortened: (§1)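 Relative viability equals treated-well nuclei counts divided by vehicle-well nuclei counts. Counts came from 4× images of lung cancer cell lines grown in 1536-well plates for 5 days after pin-tool dosing on the day after seeding. Dosing used one drug alone or a fixed anchor-drug dose plus five library-drug doses (not always all listed) in √10 steps, and values are medians of duplicate plates.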

ALW-II-49-7 + Bortezomib = compound: Cc1ccc(C(=O)Nc2cccc(C(F)(F)F)c2)cc1Nc1cncc(C(N)=O)c1 [ALW-II-49-7] + CC(C)C[C@H](NC(=O)[C@H](Cc1ccccc1)NC(=O)c1cnccn1)B(O)O [Bortezomib] (partner 0.002 µM)
Procedure, shortened: as §1

ALW-II-49-7 + AZD7762 = compound: Cc1ccc(C(=O)Nc2cccc(C(F)(F)F)c2)cc1Nc1cncc(C(N)=O)c1 [ALW-II-49-7] + NC(=O)Nc1cc(-c2cccc(F)c2)sc1C(=O)N[C@H]1CCCNC1 [AZD7762] (partner 0.2 µM)
Procedure, shortened: as §1

ALW-II-49-7 + Luminespib = compound: Cc1ccc(C(=O)Nc2cccc(C(F)(F)F)c2)cc1Nc1cncc(C(N)=O)c1 [ALW-II-49-7] + CCNC(=O)c1noc(-c2cc(C(C)C)c(O)cc2O)c1-c1ccc(CN2CCOCC2)cc1 [Luminespib] (partner 0.01 µM)
Procedure, shortened: as §1

Row | Cell Line | relative viability (ALW-II-49-7 + Decitabine; first compound 0.08 µM) | relative viability (ALW-II-49-7 + Decitabine; first compound 0.253 µM) | relative viability (ALW-II-49-7 + Decitabine; first compound 0.8 µM) | relative viability (ALW-II-49-7 + Decitabine; first compound 2.53 µM) | relative viability (ALW-II-49-7 + Decitabine; first compound 8 µM) | relative viability (ALW-II-49-7 + Bortezomib; first compound 0.08 µM) | relative viability (ALW-II-49-7 + Bortezomib; first compound 0.253 µM) | relative viability (ALW-II-49-7 + Bortezomib; first compound 0.8 µM) | relative viability (ALW-II-49-7 + Bortezomib; first compound 2.53 µM) | relative viability (ALW-II-49-7 + Bortezomib; first compound 8 µM) | relative viability (ALW-II-49-7 + AZD7762; first compound 0.08 µM) | relative viability (ALW-II-49-7 + AZD7762; first compound 0.253 µM) | relative viability (ALW-II-49-7 + AZD7762; first compound 0.8 µM) | relative viability (ALW-II-49-7 + AZD7762; first compound 2.53 µM) | relative viability (ALW-II-49-7 + AZD7762; first compound 8 µM) | relative viability (ALW-II-49-7 + Luminespib; first compound 0.08 µM) | relative viability (ALW-II-49-7 + Luminespib; first compound 0.253 µM) | relative viability (ALW-II-49-7 + Luminespib; first compound 0.8 µM) | relative viability (ALW-II-49-7 + Luminespib; first compound 2.53 µM) | relative viability (ALW-II-49-7 + Luminespib; first compound 8 µM)
1 | HCC-366 | 0.354 | 0.371 | 0.374 | 0.385 | 0.307 | 1.1 | 0.578 | 1.02 | 1.14 | 1.13 | 0.264 | 0.259 | 0.24 | 0.245 | 0.203 |  |  |  |  | 
2 | NCI-H1650 | 0.447 | 0.399 | 0.432 | 0.462 | 0.493 | 0.203 | 0.218 | 0.218 | 0.198 | 0.206 |  |  |  |  |  | 0.199 | 0.169 | 0.209 | 0.19 | 0.206
3 | SW 1573 | 0.442 | 0.601 | 0.654 | 0.44 | 0.423 | 1.01 | 0.983 | 1.14 | 1.01 | 0.959 |  |  |  |  |  | 0.29 | 0.223 | 0.251 | 0.289 | 0.144
4 | NCI-H661 | 0.519 | 0.583 | 0.574 | 0.541 | 0.5 | 0.865 | 0.796 | 0.717 |  | 0.716 |  |  |  |  |  | 1.04 | 1.01 | 0.913 | 0.976 | 0.998
5 | NCI-H1395 | 0.674 | 0.712 | 0.632 |  | 0.642 |  |  |  |  |  | 0.381 | 0.43 | 0.364 |  | 0.362 | 0.754 | 0.796 | 0.823 | 0.716 | 0.706
6 | NCI-H2228 |  |  |  |  |  | 1.06 | 0.636 | 0.975 | 0.915 | 1.16 |  |  |  |  |  | 0.255 | 0.14 | 0.16 | 0.145 | 0.215
7 | NCI-H1944 | 0.421 | 0.432 | 0.423 | 0.486 | 0.389 |  |  |  |  |  | 0.801 | 0.614 | 0.359 | 0.458 | 0.498 | 0.884 | 0.805 | 0.796 | 0.815 | 0.738
8 | COR-L23 | 0.426 | 0.521 | 0.408 | 0.501 | 0.439 | 1.13 | 0.784 | 0.95 | 0.866 | 1.11 |  |  |  |  |  | 0.651 | 0.465 | 0.521 | 0.774 | 0.808
9 | NCI-H2342 | 0.714 | 0.767 | 0.697 | 0.693 | 0.783 |  |  |  |  |  | 0.506 | 0.498 | 0.419 | 0.408 | 0.484 | 0.641 | 0.705 | 0.676 | 0.751 | 0.775
10 | NCI-H1793 | 0.518 | 0.527 | 0.516 | 0.471 | 0.53 |  |  |  |  |  | 0.412 | 0.436 | 0.487 | 0.417 | 0.289 | 0.146 | 0.197 | 0.195 | 0.177 | 0.175
11 | NCI-H1299 |  |  |  |  |  | 1.03 | 1.02 | 1.02 | 0.98 | 0.853 |  |  |  |  |  |  |  |  |  | 
12 | NCI-H520 | 0.559 | 0.472 | 0.497 | 0.531 | 0.561 | 0.385 | 0.528 |  | 0.441 | 0.709 |  |  |  |  |  | 0.219 | 0.216 | 0.232 | 0.206 | 0.237
13 | NCI-H522 | 0.67 | 0.669 | 0.697 | 0.732 | 0.692 |  |  |  |  |  | 0.787 | 0.842 | 0.754 | 0.83 | 0.934 | 1.41 | 1.05 | 1.08 | 1.15 | 1.18
14 | NCI-H1623 |  |  |  |  |  |  |  |  |  |  |  |  |  |  |  | 0.518 | 0.428 | 0.431 | 0.561 | 0.698
15 | NCI-H2170 | 0.542 | 0.478 | 0.5 | 0.464 | 0.468 |  |  |  |  |  | 1.03 | 0.775 | 0.833 | 0.835 | 0.817 | 0.73 | 0.372 | 0.418 | 0.826 | 0.784
16 | NCI-H1648 | 0.545 | 0.48 | 0.531 | 0.454 | 0.509 |  |  |  |  |  | 0.62 | 0.697 | 0.74 | 0.678 | 0.618 |  |  |  |  | 
17 | NCI-H1703 |  |  |  |  |  | 0.287 | 0.348 | 0.298 | 0.278 | 0.167 | 0.124 | 0.132 | 0.116 |  | 0.127 |  |  |  |  | 
18 | COR-L 105 | 0.722 | 0.71 | 0.673 | 0.58 | 0.616 | 0.802 | 0.681 | 0.826 | 0.587 | 0.767 |  |  |  |  |  | 0.745 | 0.646 | 0.845 | 0.72 | 0.879
19 | LK-2 | 0.393 | 0.288 | 0.301 |  | 0.252 |  |  |  |  |  | 0.447 | 0.437 | 0.427 |  | 0.332 |  | 0.184 | 0.174 | 0.205 | 0.185
20 | NCI-H2009 | 0.326 | 0.446 | 0.368 | 0.438 | 0.467 | 1 | 1.03 | 0.96 | 0.783 | 0.512 |  |  |  |  |  | 1.04 | 1.02 | 1.04 | 0.845 | 0.728
